Test results from US6951731B2, “Method for evaluating inhibition of aspartic proteases” (priority 2001, dated 2005).
Where two headings read alike, the source gives them in different places. Where a SMILES comes first, the peptide text is derived from it. [ ]: non-standard residue; d: D form. The star is where a group is joined. Sta = CC(C)C[C@H](N)[C@@H](O)CC(=O)O; Isovaleryl = CC(C)CC(=O)*

Legend:
pepsin [1] = molecular target: T1, pepsin (Sus scrofa, UniProt P00791); details: cited from earlier work; for D2Okcat (solvent isotope effect): pepsin, synthetic peptide substrate
T1 construct: formed from pepsinogen A by limited proteolysis

pepsin [2] = molecular target: T1, pepsin; experiment: Kinetics and solvent isotope effects of pepsin acting on synthetic substrates; assay type: biochemical, porcine; details: for kcat (fitted pH-independent kinetic constant): re-analysis of Hunkapillar & Richards data
Method: FIG. 2: Kinetics of pepsin acting on N-trifluroacetyl-L-phenylalanine as a function of pH (A) and pD (B). The fitted pH-independent kinetic constants are kcat=0.038±0.006 min^−1 in H2O and kcat=[…] in D2O. The dotted line indicates the range of carboxyl pKs consistent with the fitted line in D2O.
The response of low-barrier hydrogen bonds to D2O, as described herein, finally solves this 92 year-old mystery and simultaneously provides a means to evaluate the efficacy of potential aspartic protease inhibitors. During hydrolysis of N-trifluroacetyl-L-phenylalanine, Hunkapillar & Richards^10 observed bell-shaped pH profiles which were shifted to the right, but the upper pK profiles shifted to the left, thereby bringing them closer together. Normally, D2O shifts all pKs to the right about half a unit because of the fractionation factor of H3O^+.^11
The fit to the BELL rate equation of data obtained in H2O converged with pKs of 2.9±0.1 and 4.5±0.1, while those in D2O converged to the default separation of only 0.6 units, the minimum that is statistically possible. The fitted curve in FIG. 2B is the same for identical pKs of 3.84±0.08 or separated pKs of 3.5 and 4.1—or anything in between. Unknown in 1972, low-barrier hydrogen bonds are now understood to cause opposite shifts in the pKs of the conjugate bases participating in the bond. Both protonation and deprotonation of the low-barrier hydrogen bond complex are made more difficult, which shifts apparent pKs outwards in H2O but less so in D2O.^7
By comparing the maximal values of their fitted curves, Hunkapillar & Richards estimated that ^D2Okcat≈3. However, the appropriate comparison note between the absolute maxima, but between the pH-independent maxima,^11 represented by the horizontal bars in FIGS. 2A and 2B. This ratio yields ^D2Okcat=1.8±0.4 for pKs separated by 0.6 units, and lower values if the fractionation factor is greater than 0.3. […]

HIV-1 protease [3] = molecular target: T2, HIV-1 protease (Human immunodeficiency virus type 1 group M subtype B, UniProt P04585); details: complex between HIV-1 protease and pepstatin; cited from earlier work
pepsin [4] = molecular target: T1, pepsin; details: cited from earlier work
HIV-1 protease [5] = molecular target: T2, HIV-1 protease; details: cited from earlier work
[6] = product inhibition, substrate Ac-Ser-Glu-Asp-Tyr*Phe-Leu-Asp-Gly-NH2 (SEQ. ID. NO: 2), read-out: Kii
[7] = product inhibition, substrate Ac-Ser-Glu-Asp-Tyr*Phe-Leu-Asp-Gly-NH2 (SEQ. ID. NO: 2), read-out: Kis
[8] = substrate Ac-Ser-Glu-Asp-Tyr*Phe-Leu-Asp-Gly-NH2 (SEQ. ID. NO: 2), KH/KD
[9] = pH 4.5, substrate Ac-Ser-Glu-Asp-Tyr*Phe-Val-Val-NH2 (SEQ. ID. NO: 6)

T1 sequence (P00791 60-385): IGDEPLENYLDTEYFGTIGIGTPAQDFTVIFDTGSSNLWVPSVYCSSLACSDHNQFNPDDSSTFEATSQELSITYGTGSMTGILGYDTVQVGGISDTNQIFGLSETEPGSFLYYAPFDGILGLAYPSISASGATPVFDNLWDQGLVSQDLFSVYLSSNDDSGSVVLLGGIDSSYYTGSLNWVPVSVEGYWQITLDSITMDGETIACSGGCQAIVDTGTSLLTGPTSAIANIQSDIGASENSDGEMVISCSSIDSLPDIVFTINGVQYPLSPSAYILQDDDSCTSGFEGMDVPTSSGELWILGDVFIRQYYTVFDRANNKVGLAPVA

O=C(O)[C@H](Cc1ccccc1)NC(=O)C(F)(F)F [N-trifluroacetyl-L-phenylalanine]
D2Okcat (pepsin [1]; estimated by Hunkapillar & Richards from maximal values of fitted curves): ≈ 3 | kcat (fitted pH-independent kinetic constant) (pepsin [2]; in D2O): 0.022±2 min^−1 | kcat (fitted pH-independent kinetic constant) (pepsin [2]; in H2O): 0.038±0.006 min^−1 | D2Okcat (pepsin [2]; ratio of pH-independent maxima, pKs separated by 0.6 units): 1.8±0.4

CC(C)CC(=O)N[C@H](C(=O)N[C@H](C(=O)N[C@@H](CC(C)C)[C@@H](O)CC(=O)N[C@@H](C)C(=O)N[C@@H](CC(C)C)[C@@H](O)CC(=O)O)C(C)C)C(C)C [pepstatin] (Isovaleryl-VV[Sta]A[Sta]-OH)
Low-barrier hydrogen bond signal in proton NMR of the inhibited complex (HIV-1 protease [3]): negative results | D2Ok on slow onset of inhibition (pepsin [4]; pre-incubation experiments with free enzyme): 0.69±0.09 | D2Ok on slow onset of inhibition (pepsin [4]; when catalysis is in progress): 1.25±0.09

Ac-Ser-Glu-Asp-Tyr (SEDY; printed: Ser-Glu-Asp-Tyr)
Ki (HIV-1 protease [5]; [6]): 12 mM | Ki (HIV-1 protease [5]; [7]): 3.8 mM | D2OKii (solvent isotope effect on Kii) (HIV-1 protease [5]; [8]): 3.8 ± 1.3 | D2OKis (solvent isotope effect on Kis) (HIV-1 protease [5]; [8]): 4.2 ± 1.6

Leu-Ser-Nph-Nle-Ala-Leu-OMe
D2Okcat (solvent isotope effect) (pepsin [1]): 1.51±0.02

Lys-Lys-Ala-Lys-Phe-Nph-Arg-Leu
D2Okcat (solvent isotope effect) (pepsin [1]): 2.02±0.15

Phe-Leu-Asp-Gly-NH2 (FLDG; printed: Phe-Leu-Asp-Gly-)
Ki (HIV-1 protease [5]; [6]): 4 mM | Ki (HIV-1 protease [5]; [7]): 12 mM | D2OKii (solvent isotope effect on Kii) (HIV-1 protease [5]; [8]): 3.0 ± 0.9 | D2OKis (solvent isotope effect on Kis) (HIV-1 protease [5]; [8]): 1.1 ± 0.4

RASEDY [Ac-Arg-Ala-Ser-Glu-Asp-Tyr]
Ki (HIV-1 protease [5]; pH 3.5, substrate Ac-Ser-Glu-Asp-Tyr*Phe-Val-Val-NH2 (SEQ. ID. NO: 6), pattern uncompetitive, read-out: Kii): 0.23 mM | D2OKii (solvent isotope effect on Kii) (HIV-1 protease [5]; [9]): 1.0 ± 0.8 | D2OKis (solvent isotope effect on Kis) (HIV-1 protease [5]; [9]): 1.2 ± 0.4 | D2OKii (solvent isotope effect on Kii) (HIV-1 protease [5]; pH 6, substrate SEQ. ID. NO: 4): 3.8 ± 1.3 | D2OKis (solvent isotope effect on Kis) (HIV-1 protease [5]; pH 6, substrate SEQ. ID. NO: 4): 4.2 ± 1.6 | Ki (HIV-1 protease [5]; pH 6, substrate printed Ac-Ser-Glu-Asp-Tyr*Phe-Leu-Asp-Gly-NH2 (SEQ. ID. NO: 4), read-out: Kii): 8 mM | Ki (HIV-1 protease [5]; pH 6, substrate printed Ac-Ser-Glu-Asp-Tyr*Phe-Leu-Asp-Gly-NH2 (SEQ. ID. NO: 4), read-out: Kis): 7 mM
